Test system: P388 tumor cells
Parameters: species or system Male CD2-F₁ mice
Conditions: mouse, in vivo, po
Text: The tests employed for evaluating the antitumour activity of compounds of the present invention are essentially those used in the Tumor Panel of the Developmental Therapeutics Program, Divison of Cancer Treatment National Cancer Institute, A Goldin, et al., Methods in Cancer Research, Vol. XVI, p. 165, Academic Press (1979). Some modifications in dose level and schedule have been made to increase the testing efficiency.
Male CD2-F₁ mice, weighing 20 ± 3 g, were used for this test. Control and test animals were injected intraperitioneally with a suspension of ∼10⁶ viable P388 tumor cells on day 0. In each test, several dose levels which bracketed the LD₂₀ of the compound were evaluated; each dose level group contained six animals. The test compounds were prepared either in physiologic saline containing 0.05% Tween 80 or distilled water containing 5% dextrose and were administered (a) orally, (b) intravenously or (c) intraperitoneally according to the indicated schedule relative to the day of tumour implant. Doses were on a mg/kg basis according to individual animals' body weights. The day of death for each animal was recorded, the median identified for each group and the percent increase in life span (%ILS) was calculated from the ratios of median survival time for treated to control groups. The criterion for activity is % ILS greater than or equal to 20%.

Compound: Nc1ncnc2c1ncn2[C@@H]1CC[C@@H](O)[C@H]1O (racemic) [(±)-(1R*,2S*,3R*)-3-(6-amino-9H-purin-9-yl)-1,2-cyclopentanediol]
- Toxic at:: 35 mg/kg

From EP0431799A2, “Use of nucleoside derivatives as cytotoxic agents” (THE WELLCOME FOUNDATION LIMITED, priority 1989, dated 1991)
